Assay results as given in ChEMBL document CHEMBL4665855, “Discovery of DS34942424: An orally potent analgesic without mu opioid receptor agonist activity” (Bioorg Med Chem, 2020).
pEC50: −log10 of the molar value.

Experiments:
[1] = Protective index, ratio of ID50 for locomotory activity to ED50 for antinociceptive activity in orally dosed ddY mouse; format: toxicity, organism-based; conditions: in vivo, po
[2] = Effect on spontaneous locomotory activity in orally dosed ddY mouse measured for 1 hr; format: ADME, organism-based; conditions: in vivo, po
Mus musculus [3] = experiment: Antinociceptive activity in orally dosed ddY mouse model assessed as inhibition of acetic acid-induced writhes pretreated for 30 mins followed by acetic acid challenge and measured for 25 mins post acetic acid challenge; format: functional; conditions: po, 55 min
hERG (KCNH2) [4] = molecular target: T1, hERG (KCNH2) (Homo sapiens, UniProt Q12809); experiment: Inhibition of human ERG expressed in HEK293 cells at 30 uM at - 80 mV holding potential by whole cell patch clamp assay relative to control; format: cell-based; conditions: HEK293 cells expressing human ERG
Mus musculus [5] = experiment: Antinociceptive activity in ddY mouse model assessed as inhibition of acetic acid-induced writhes at 30 mg/kg, po pretreated for 30 mins followed by acetic acid challenge and measured for 25 mins post acetic acid challenge; format: functional; conditions: 55 min
hERG (KCNH2) [6] = molecular target: T1, hERG (KCNH2); experiment: Inhibition of human ERG expressed in HEK293 cells at 10 uM at - 80 mV holding potential by whole cell patch clamp assay relative to control; format: cell-based; conditions: HEK293 cells expressing human ERG
[7] = Metabolic stability in CD1 mouse liver microsomes assessed as compound remaining measured after 0.5 hrs by LC/MS-MS analysis; format: ADME, Microsome; conditions: read-out: Stabilty
[8] = Cmax in ddY mouse at 10 mg/kg, po by LC-MS/MS method; format: ADME, organism-based; design: route oral, dose 10 mg/kg; conditions: in vivo
[9] = 1-Octanol-PBS buffer distribution coefficient, log D of compound at pH 7.4; format: physicochemical
[10] = AUC in ddY mouse at 10 mg/kg, po by LC-MS/MS method; format: ADME, organism-based; design: dose 10 mg/kg; conditions: in vivo
Mu-type opioid receptor [11] = molecular target: T2, Mu-type opioid receptor (Homo sapiens, UniProt P35372); experiment: Agonist activity at human MOR expressed in CHOK1 cells assessed as inhibition of forskolin-stimulated cAMP accumulation by FRET assay relative to DAMGO; format: cell-based; conditions: CHO-K1, human
Mu-type opioid receptor [12] = molecular target: T2, Mu-type opioid receptor; experiment: Displacement of [3H]diprenorphine from human MOR incubated for 1 hr
Mus musculus [13] = experiment: Analgesic activity in formalin-induced orally dosed ddY mouse model of hyperalgesia assessed as time spent in paw licking during acute phase pretreated for 30 mins followed by formalin challenge and measured for 10 mins; format: functional; conditions: po, 0.5 h
[14] = Half life in ddY mouse at 10 mg/kg, po by LC-MS/MS method; format: ADME, organism-based; conditions: in vivo

T1 sequence (Q12809 whole entry): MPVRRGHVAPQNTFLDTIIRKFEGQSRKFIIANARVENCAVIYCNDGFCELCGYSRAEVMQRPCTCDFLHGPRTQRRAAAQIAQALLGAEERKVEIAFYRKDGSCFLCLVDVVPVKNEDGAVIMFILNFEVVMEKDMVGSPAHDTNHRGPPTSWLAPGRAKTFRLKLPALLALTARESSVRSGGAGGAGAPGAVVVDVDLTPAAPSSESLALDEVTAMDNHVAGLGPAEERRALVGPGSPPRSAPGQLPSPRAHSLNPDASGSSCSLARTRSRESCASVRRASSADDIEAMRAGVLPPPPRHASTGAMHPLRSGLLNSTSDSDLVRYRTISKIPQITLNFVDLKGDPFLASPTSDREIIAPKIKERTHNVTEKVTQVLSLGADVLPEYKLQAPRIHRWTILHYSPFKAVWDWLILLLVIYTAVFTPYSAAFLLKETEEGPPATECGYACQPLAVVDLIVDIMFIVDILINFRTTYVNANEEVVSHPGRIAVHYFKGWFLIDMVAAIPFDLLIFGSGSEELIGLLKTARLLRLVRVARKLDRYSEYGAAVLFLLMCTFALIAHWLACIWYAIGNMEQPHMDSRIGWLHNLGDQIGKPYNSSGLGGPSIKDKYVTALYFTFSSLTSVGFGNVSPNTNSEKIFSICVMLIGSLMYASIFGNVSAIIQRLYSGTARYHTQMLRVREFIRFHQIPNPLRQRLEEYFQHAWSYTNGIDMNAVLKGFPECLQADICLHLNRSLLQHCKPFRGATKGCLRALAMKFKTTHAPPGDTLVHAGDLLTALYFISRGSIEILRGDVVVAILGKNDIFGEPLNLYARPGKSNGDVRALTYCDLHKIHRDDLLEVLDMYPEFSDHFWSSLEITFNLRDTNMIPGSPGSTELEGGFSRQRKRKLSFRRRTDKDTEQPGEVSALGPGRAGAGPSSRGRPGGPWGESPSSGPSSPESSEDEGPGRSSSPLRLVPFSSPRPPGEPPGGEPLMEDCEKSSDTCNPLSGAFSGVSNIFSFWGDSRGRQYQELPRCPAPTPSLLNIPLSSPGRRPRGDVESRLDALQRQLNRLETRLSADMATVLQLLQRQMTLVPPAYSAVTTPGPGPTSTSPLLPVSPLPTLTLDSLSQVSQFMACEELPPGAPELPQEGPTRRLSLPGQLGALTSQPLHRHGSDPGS
T2 sequence (P35372 whole entry): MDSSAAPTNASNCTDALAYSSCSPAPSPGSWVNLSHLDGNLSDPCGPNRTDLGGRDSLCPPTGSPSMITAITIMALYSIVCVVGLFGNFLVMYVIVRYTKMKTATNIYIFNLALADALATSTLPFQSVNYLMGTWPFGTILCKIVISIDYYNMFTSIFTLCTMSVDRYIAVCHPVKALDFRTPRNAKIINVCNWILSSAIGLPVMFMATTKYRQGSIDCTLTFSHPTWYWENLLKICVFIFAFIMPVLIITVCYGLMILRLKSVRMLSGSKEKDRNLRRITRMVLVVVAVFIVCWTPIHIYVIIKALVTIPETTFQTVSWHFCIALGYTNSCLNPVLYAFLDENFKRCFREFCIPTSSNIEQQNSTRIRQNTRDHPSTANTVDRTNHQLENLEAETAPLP

For CC12CCN(CC1)Cc1c([nH]c3ccccc13)C2=O, which selectivity ratio [1] is on record?
The selectivity ratio was 2.1.

What about the ID50 [2] of the same molecule?
Its ID50 is 16 mg/kg.

And the ED50 (Mus musculus [3])?
The ED50 was 7.8 mg/kg.

Which selectivity ratio [1] does the source give for C/C=C1/CN2CC[C@H]1C(=O)c1[nH]c3ccccc3c1C2 here?
The selectivity ratio was 2.2.

What about the ID50 [2] of the same molecule?
Its ID50 is 69 mg/kg.

And the ED50 (Mus musculus [3])?
The ED50 was 32 mg/kg.

Which selectivity ratio [1] does the source give for CN1C(=O)c2[nH]c3ccccc3c2CN2CC[C@H]1C2 here?
The selectivity ratio was 2.1.

And the ID50 [2]?
The ID50 was 19 mg/kg.

What about the ED50 (Mus musculus [3]) of the same molecule?
The ED50 was 8.7 mg/kg.

For CN1C(=O)c2ccccc2CN2C[C@@H]1C1(CC1)C2, which inhibition at 30 µM (hERG (KCNH2) [4]) is on record?
Its inhibition at 30 µM is 15%.

What about the inhibition in vivo at 30 mg/kg (Mus musculus [5]) of the same molecule?
Its inhibition in vivo at 30 mg/kg is 84%.

And the inhibition at 10 µM (hERG (KCNH2) [6])?
The inhibition at 10 µM was 14%.

What about the remaining at 0.5 h [7] of the same molecule?
The remaining at 0.5 h was 81%.

What about the Cmax [8] of the same molecule?
The Cmax was 5240 nM.

And the logD [9]?
The logD was 0.5.

What about the AUC [10] of the same molecule?
Its AUC is 5.24 µM·h.

What about the ED50 (Mus musculus [3]) of the same molecule?
Its ED50 is 15 mg/kg.

Which inhibition in vivo at 30 mg/kg (Mus musculus [5]) does the source give for CN1C(=O)c2ccccc2CN2CC[C@H]1C2 here?
Its inhibition in vivo at 30 mg/kg is 97%.

And the inhibition at 10 µM (hERG (KCNH2) [6])?
Its inhibition at 10 µM is 5%.

What about the remaining at 0.5 h [7] of the same molecule?
The remaining at 0.5 h was 82%.

And the Cmax [8]?
Its Cmax is 3740 nM.

And the logD [9]?
The logD was 0.3.

What about the AUC [10] of the same molecule?
The AUC was 7.79 µM·h.

And the selectivity ratio [1]?
The selectivity ratio was over 3.4.

And the ID50 [2]?
Its ID50 is over 85 mg/kg.

And the ED50 (Mus musculus [3])?
The ED50 was 25 mg/kg.

Which inhibition at 30 µM (hERG (KCNH2) [4]) does the source give for CN1C(=O)c2cc(F)ccc2CN2C[C@@H]1C1(CC1)C2 here?
The inhibition at 30 µM was 14%.

And the remaining at 0.5 h [7]?
The remaining at 0.5 h was 81%.

What about the logD [9] of the same molecule?
Its logD is 0.9.

And the ED50 (Mus musculus [3])?
Its ED50 is 36 mg/kg.

For CN1C(=O)c2c(F)cccc2CN2C[C@@H]1C1(CC1)C2, which inhibition at 30 µM (hERG (KCNH2) [4]) is on record?
Its inhibition at 30 µM is 0%.

What about the remaining at 0.5 h [7] of the same molecule?
Its remaining at 0.5 h is 79%.

What about the logD [9] of the same molecule?
Its logD is 1.

And the ED50 (Mus musculus [3])?
Its ED50 is 35 mg/kg.

Which Emax (Mu-type opioid receptor [11]) does the source give for CN1C(=O)c2ccc(F)cc2CN2C[C@@H]1C1(CC1)C2 here?
Its Emax is 18%.

And the pEC50 (Mu-type opioid receptor [12])?
Its pEC50 is under 4.00.

What about the ED50 (Mus musculus [13]) of the same molecule?
Its ED50 is 16 mg/kg.

And the half-life [14]?
Its half-life is 1.9 h.

What about the inhibition at 30 µM (hERG (KCNH2) [4]) of the same molecule?
Its inhibition at 30 µM is 2%.

And the remaining at 0.5 h [7]?
The remaining at 0.5 h was 83%.

What about the Cmax [8] of the same molecule?
The Cmax was 1470 nM.

And the logD [9]?
Its logD is 0.9.

What about the AUC [10] of the same molecule?
Its AUC is 1.74 µM·h.

And the selectivity ratio [1]?
The selectivity ratio was 10.3.

And the ID50 [2]?
The ID50 was 66 mg/kg.

And the ED50 (Mus musculus [3])?
Its ED50 is 6.4 mg/kg.

Which inhibition in vivo at 30 mg/kg (Mus musculus [5]) does the source give for O=C1c2ccccc2CN2CCCN1CC2 here?
Its inhibition in vivo at 30 mg/kg is 24%.

And the inhibition at 10 µM (hERG (KCNH2) [6])?
Its inhibition at 10 µM is -1%.

What about the remaining at 0.5 h [7] of the same molecule?
The remaining at 0.5 h was 78%.

What about the logD [9] of the same molecule?
The logD was 0.6.

For CN1C(=O)c2cccc(F)c2CN2C[C@@H]1C1(CC1)C2, which inhibition at 30 µM (hERG (KCNH2) [4]) is on record?
The inhibition at 30 µM was 0%.

And the remaining at 0.5 h [7]?
Its remaining at 0.5 h is 79%.

And the logD [9]?
The logD was 0.9.

And the ED50 (Mus musculus [3])?
The ED50 was 14 mg/kg.

Which results are given for CCN1C(=O)c2ccccc2CN2CC[C@H]1C2?
inhibition in vivo at 30 mg/kg (Mus musculus [5]): 45%; inhibition at 10 µM (hERG (KCNH2) [6]): 6%; remaining at 0.5 h [7]: 80%; logD [9]: 0.4

For CC1c2ccccc2C(=O)N(C)[C@H]2CCN1C2 (some centres undefined), which inhibition in vivo at 30 mg/kg (Mus musculus [5]) is on record?
Its inhibition in vivo at 30 mg/kg is 31%.

What about the inhibition at 10 µM (hERG (KCNH2) [6]) of the same molecule?
The inhibition at 10 µM was 6%.

What about the remaining at 0.5 h [7] of the same molecule?
The remaining at 0.5 h was 81%.

What about the logD [9] of the same molecule?
The logD was 0.3.

With CN1C(=O)c2ccccc2CN2CCC[C@H]1C2 as the molecule, how does the inhibition in vivo at 30 mg/kg (Mus musculus [5]) read?
Its inhibition in vivo at 30 mg/kg is 77%.

And the inhibition at 10 µM (hERG (KCNH2) [6])?
The inhibition at 10 µM was 5%.

And the remaining at 0.5 h [7]?
The remaining at 0.5 h was 62%.

What about the Cmax [8] of the same molecule?
Its Cmax is 1970 nM.

And the logD [9]?
Its logD is 0.3.

And the AUC [10]?
The AUC was 1.97 µM·h.

And the ED50 (Mus musculus [3])?
Its ED50 is 23 mg/kg.
